# Results: PMC4052943 (BioMed Research International, 2014)
# Read-outs that look alike come from different tables or passages of the source.
# Tests used:
# A549 cells = assay: MTT cell proliferation assay; format: cell-based; details: Homo sapiens; A549; 50 μg/mL; 48 h; read-out: inhibition of cells (antiproliferative activity, MTT)
# Description: (§1) Inhibition of cell proliferation by PC and EA was measured with the MTT assay. Human lung cancer A549 and H1299 cells were obtained from ATCC (Manassas, VA, USA) and maintained in DMEM supplemented with 10% fetal calf serum (FCS), 1% penicillin/streptomycin. Cells were plated in 96-well culture plates (5 × 10^3 cells/well). After 24 h incubation, cells were treated with vehicle alone (0.1% DMSO) and PC and EA (12.5–200 μg/mL) extracts for 48 h. Then, the culture medium was replaced by 100 μL of fresh medium containing 0.5 mg/mL MTT, and the plates were incubated for 2 h at 37°C. The medium was then removed and was replaced by 200 μL of DMSO to solubilize the converted purple dye. The absorbance was measured with a spectrophotometer microplate reader at a wavelength of 570 nm.
# H1299 cells = assay: MTT cell proliferation assay; format: cell-based; details: Homo sapiens, NCI-H1299; H1299; 50 μg/mL; 48 h; read-out: inhibition of cells (antiproliferative activity, MTT)
# Description: as §1
# [1] = test system: Salmonella typhimurium TA97a; assay: Ames antimutagenicity assay (preincubation); details: for inhibition at 50 µM / inhibition at 100 µM / inhibition at 250 µM / inhibition at 500 µM: Salmonella enterica, TYPHIMURIUM; for Number of His+ revertants colonies/plate: TA 97a;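 as to all read-outs here: compound and mutagen preincubated together 30 min at 37 °C before adding bacteria, then plated on minimal glucose agar for 48 h and His+ revertant colonies counted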
# Description: (§2) In the preincubation experiment, test compounds and mutagen, each having a volume of 0.1 mL of varying concentrations, were preincubated at 37°C for 30 min and then 0.1 mL of 1 × 10^7 CFU/mL density of the bacterial culture was added, followed by the addition of 2.5 mL of top agar at 45°C (containing 0.5% NaCl and 0.6% agar) supplemented with 0.5 mM histidine-biotin. […] The combined solutions were vortexed and poured onto minimal glucose plates (40% glucose solution and Vogel Bonner medium). The plates were incubated at 37°C for 48 h and the numbers of histidine-independent revertants colonies were scored.
# (§3) Survival of the bacteria was routinely monitored for each experiment. Parallel controls were run with compounds alone at all concentrations to test the possible toxicity. The concentrations of the test samples for investigating the antimutagenicity were 50, 100, 200, and 500 μM. […] All the test samples and mutagens were dissolved in DMSO (final conc., 0.01%). […] Plates were set up in triplicate for each concentration and the entire experiment was repeated three times. Inhibition of mutagenicity was expressed as percentage decrease of reverse mutation and calculated as (1) Percent inhibition=[(a−b)/(a−c)]×100, where a = number of histidine revertants induced by mutagen, b = number of histidine revertants induced by mutagen in the presence of test compound, and c = number of revertants induced in negative control.
# [2] = test system: Salmonella typhimurium TA98; assay: Ames antimutagenicity assay (preincubation); details: for inhibition at 50 µM / inhibition at 100 µM / inhibition at 250 µM / inhibition at 500 µM: Salmonella enterica, TYPHIMURIUM;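 as to all read-outs here: test compound and mutagen preincubated 30 min at 37°C before adding bacteria, then His+ revertant colonies counted after 48 h plating, inhibition relative to mutagen-only versus negative-control revertants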
# Description: as §2, §3
# [3] = test system: Salmonella typhimurium TA100; assay: Ames antimutagenicity assay (preincubation); details: for inhibition at 50 µM / inhibition at 100 µM / inhibition at 250 µM / inhibition at 500 µM: Salmonella enterica, TYPHIMURIUM;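 as to all read-outs here: compound and mutagen preincubated together 30 min at 37°C before bacteria added, then plates incubated 48 h at 37°C, inhibition relative to mutagen-alone revertants after subtracting the negative control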
# Description: as §2, §3
# [4] = test system: Salmonella typhimurium strains TA97a, TA98, TA100, and TA102; assay: Ames test, statements over all tester strains; details: 50–500 μM
# Description: as §2, §3
structure (smiles),measurement,setting,value
"O=c1oc2c(O)c(O)cc3c(=O)oc4c(O)c(O)cc1c4c23 [Ellagic acid, ellagic acid]",inhibition at 50 µg/mL,A549 cells,39%
same,inhibition at 50 µg/mL,H1299 cells,34%
same,inhibition at 50 µM,"[1]; read-out: % inhibition of mutagenicity, TA 97a, 50 μM + 2AF, S9",12.5%
same,inhibition at 50 µM,"[1]; read-out: % inhibition of mutagenicity, TA 97a, 50 μM + BP, S9",14.1%
same,inhibition at 50 µM,"[1]; read-out: % inhibition of mutagenicity, TA 97a, 50 μM + MMS, no S9",9%
same,inhibition at 50 µM,"[1]; read-out: % inhibition of mutagenicity, TA 97a, 50 μM + NaN3, no S9",21.1%
same,inhibition at 100 µM,"[1]; read-out: % inhibition of mutagenicity, TA 97a, 100 μM + 2AF, S9",22.6%
same,inhibition at 100 µM,"[1]; read-out: % inhibition of mutagenicity, TA 97a, 100 μM + BP, S9",36%
same,inhibition at 100 µM,"[1]; read-out: % inhibition of mutagenicity, TA 97a, 100 μM + MMS, no S9",25%
same,inhibition at 100 µM,"[1]; read-out: % inhibition of mutagenicity, TA 97a, 100 μM + NaN3, no S9",39.4%
same,inhibition at 250 µM,"[1]; read-out: % inhibition of mutagenicity, TA 97a, 250 μM + BP, S9",71.8%
same,inhibition at 250 µM,"[1]; read-out: % inhibition of mutagenicity, TA 97a, 250 μM + MMS, no S9",42.2%
same,inhibition at 250 µM,"[1]; read-out: % inhibition of mutagenicity, TA 97a, 250 μM + NaN3, no S9",53.6%
same,inhibition at 500 µM,"[1]; read-out: % inhibition of mutagenicity, TA 97a, 500 μM + 2AF, S9",81.7%
same,inhibition at 500 µM,"[1]; read-out: % inhibition of mutagenicity, TA 97a, 500 μM + BP, S9",83.5%
same,inhibition at 500 µM,"[1]; read-out: % inhibition of mutagenicity, TA 97a, 500 μM + MMS, no S9",66.5%
same,inhibition at 500 µM,"[1]; read-out: % inhibition of mutagenicity, TA 97a, 500 μM + NaN3, no S9",72.1%
same,Number of His+ revertants colonies/plate,"[1]; 50 μM + 2AF, S9",312.3 ± 20.5 colonies/plate
same,Number of His+ revertants colonies/plate,"[1]; 50 μM + BP, S9",652.7 ± 35.3 colonies/plate
same,Number of His+ revertants colonies/plate,"[1]; 50 μM + MMS, no S9",426.3 ± 11.6 colonies/plate
same,Number of His+ revertants colonies/plate,"[1]; 50 μM + NaN3, no S9",242.0 ± 11.8 colonies/plate
same,Number of His+ revertants colonies/plate,"[1]; 100 μM + 2AF, S9",296.7 ± 13.4 colonies/plate
same,Number of His+ revertants colonies/plate,"[1]; 100 μM + BP, S9",529.0 ± 28.6 colonies/plate
same,Number of His+ revertants colonies/plate,"[1]; 100 μM + MMS, no S9",378.0 ± 10.8 colonies/plate
same,Number of His+ revertants colonies/plate,"[1]; 100 μM + NaN3, no S9",219.3 ± 7.1 colonies/plate
same,Number of His+ revertants colonies/plate,"[1]; 250 μM + BP, S9",333.3 ± 22.2 colonies/plate
same,Number of His+ revertants colonies/plate,"[1]; 250 μM + MMS, no S9",321.3 ± 10.8 colonies/plate
same,Number of His+ revertants colonies/plate,"[1]; 250 μM + NaN3, no S9",196.7 ± 8.2 colonies/plate
same,Number of His+ revertants colonies/plate,"[1]; 500 μM + 2AF, S9",212.0 ± 10.4 colonies/plate
same,Number of His+ revertants colonies/plate,"[1]; 500 μM + BP, S9",275.3 ± 17.5 colonies/plate
same,Number of His+ revertants colonies/plate,"[1]; 500 μM + MMS, no S9",239.7 ± 10.8 colonies/plate
same,Number of His+ revertants colonies/plate,"[1]; 500 μM + NaN3, no S9",168.0 ± 7.0 colonies/plate
same,inhibition at 50 µM,"[2]; read-out: % inhibition of mutagenicity, TA 98, 50 μM + 2AF, S9",19.4%
same,inhibition at 50 µM,"[2]; read-out: % inhibition of mutagenicity, TA 98, 50 μM + BP, S9",22.2%
same,inhibition at 50 µM,"[2]; read-out: % inhibition of mutagenicity, TA 98, 50 μM + MMS, no S9",22.2%
same,inhibition at 100 µM,"[2]; read-out: % inhibition of mutagenicity, TA 98, 100 μM + 2AF, S9",39.6%
same,inhibition at 100 µM,"[2]; read-out: % inhibition of mutagenicity, TA 98, 100 μM + BP, S9",48.2%
same,inhibition at 100 µM,"[2]; read-out: % inhibition of mutagenicity, TA 98, 100 μM + MMS, no S9",34%
same,inhibition at 100 µM,"[2]; read-out: % inhibition of mutagenicity, TA 98, 100 μM + NaN3, no S9",27.9%
same,inhibition at 250 µM,"[2]; read-out: % inhibition of mutagenicity, TA 98, 250 μM + BP, S9",62.3%
same,inhibition at 250 µM,"[2]; read-out: % inhibition of mutagenicity, TA 98, 250 μM + MMS, no S9",50%
same,inhibition at 250 µM,"[2]; read-out: % inhibition of mutagenicity, TA 98, 250 μM + NaN3, no S9",50%
same,inhibition at 500 µM,"[2]; read-out: % inhibition of mutagenicity, TA 98, 500 μM + 2AF, S9",80%
same,inhibition at 500 µM,"[2]; read-out: % inhibition of mutagenicity, TA 98, 500 μM + BP, S9",78.6%
same,inhibition at 500 µM,"[2]; read-out: % inhibition of mutagenicity, TA 98, 500 μM + MMS, no S9",69%
same,inhibition at 500 µM,"[2]; read-out: % inhibition of mutagenicity, TA 98, 500 μM + NaN3, no S9",64.2%
same,Number of His+ revertants colonies/plate,"[2]; TA 98, 50 μM + 2AF, S9",214.3 ± 13.9 colonies/plate
same,Number of His+ revertants colonies/plate,"[2]; TA 98, 50 μM + BP, S9",140.0 ± 12.2 colonies/plate
same,Number of His+ revertants colonies/plate,"[2]; TA 98, 50 μM + MMS, no S9",53.0 ± 1.2 colonies/plate
same,Number of His+ revertants colonies/plate,"[2]; TA 98, 100 μM + 2AF, S9",171.0 ± 9.5 colonies/plate
same,Number of His+ revertants colonies/plate,"[2]; TA 98, 100 μM + BP, S9",107.3 ± 7.9 colonies/plate
same,Number of His+ revertants colonies/plate,"[2]; TA 98, 100 μM + MMS, no S9",48.3 ± 2.0 colonies/plate
same,Number of His+ revertants colonies/plate,"[2]; TA 98, 100 μM + NaN3, no S9",48.3 ± 2.7 colonies/plate
same,Number of His+ revertants colonies/plate,"[2]; TA 98, 250 μM + BP, S9",86.3 ± 5.8 colonies/plate
same,Number of His+ revertants colonies/plate,"[2]; TA 98, 250 μM + MMS, no S9",44.0 ± 2.1 colonies/plate
same,Number of His+ revertants colonies/plate,"[2]; TA 98, 250 μM + NaN3, no S9",43.3 ± 2.6 colonies/plate
same,Number of His+ revertants colonies/plate,"[2]; TA 98, 500 μM + 2AF, S9",76.3 ± 6.1 colonies/plate
same,Number of His+ revertants colonies/plate,"[2]; TA 98, 500 μM + BP, S9",60.7 ± 10.5 colonies/plate
same,Number of His+ revertants colonies/plate,"[2]; TA 98, 500 μM + MMS, no S9",37.3 ± 2.6 colonies/plate
same,Number of His+ revertants colonies/plate,"[2]; TA 98, 500 μM + NaN3, no S9",38.0 ± 1.7 colonies/plate
same,inhibition at 50 µM,"[3]; read-out: % inhibition of mutagenicity, TA 100, 50 μM + 2AF, S9",22.5%
same,inhibition at 50 µM,"[3]; read-out: % inhibition of mutagenicity, TA 100, 50 μM + BP, S9",21.8%
same,inhibition at 50 µM,"[3]; read-out: % inhibition of mutagenicity, TA 100, 50 μM + MMS, no S9",8%
same,inhibition at 50 µM,"[3]; read-out: % inhibition of mutagenicity, TA 100, 50 μM + NaN3, no S9",11.4%
same,inhibition at 100 µM,"[3]; read-out: % inhibition of mutagenicity, TA 100, 100 μM + 2AF, S9",46.1%
same,inhibition at 100 µM,"[3]; read-out: % inhibition of mutagenicity, TA 100, 100 μM + BP, S9",42.8%
same,inhibition at 100 µM,"[3]; read-out: % inhibition of mutagenicity, TA 100, 100 μM + MMS, no S9",26.4%
same,inhibition at 100 µM,"[3]; read-out: % inhibition of mutagenicity, TA 100, 100 μM + NaN3, no S9",25.6%
same,inhibition at 250 µM,"[3]; read-out: % inhibition of mutagenicity, TA 100, 250 μM + BP, S9",70%
same,inhibition at 250 µM,"[3]; read-out: % inhibition of mutagenicity, TA 100, 250 μM + MMS, no S9",45.1%
same,inhibition at 250 µM,"[3]; read-out: % inhibition of mutagenicity, TA 100, 250 μM + NaN3, no S9",46.4%
same,inhibition at 500 µM,"[3]; read-out: % inhibition of mutagenicity, TA 100, 500 μM + 2AF, S9",83.8%
same,inhibition at 500 µM,"[3]; read-out: % inhibition of mutagenicity, TA 100, 500 μM + BP, S9",88.9%
same,inhibition at 500 µM,"[3]; read-out: % inhibition of mutagenicity, TA 100, 500 μM + MMS, no S9",65.3%
same,inhibition at 500 µM,"[3]; read-out: % inhibition of mutagenicity, TA 100, 500 μM + NaN3, no S9",65.9%
same,Number of His+ revertants colonies/plate,"[3]; TA 100, 50 μM + 2AF, S9",426.0 ± 18.6 colonies/plate
same,Number of His+ revertants colonies/plate,"[3]; TA 100, 50 μM + BP, S9",580.3 ± 25.6 colonies/plate
same,Number of His+ revertants colonies/plate,"[3]; TA 100, 50 μM + MMS, no S9",900.3 ± 16.3 colonies/plate
same,Number of His+ revertants colonies/plate,"[3]; TA 100, 50 μM + NaN3, no S9",340.7 ± 9.4 colonies/plate
same,Number of His+ revertants colonies/plate,"[3]; TA 100, 100 μM + 2AF, S9",350.0 ± 12.8 colonies/plate
same,Number of His+ revertants colonies/plate,"[3]; TA 100, 100 μM + BP, S9",472.3 ± 19.4 colonies/plate
same,Number of His+ revertants colonies/plate,"[3]; TA 100, 100 μM + MMS, no S9",754.0 ± 8.2 colonies/plate
same,Number of His+ revertants colonies/plate,"[3]; TA 100, 100 μM + NaN3, no S9",312.3 ± 8.4 colonies/plate
same,Number of His+ revertants colonies/plate,"[3]; TA 100, 250 μM + BP, S9",336.0 ± 17.6 colonies/plate
same,Number of His+ revertants colonies/plate,"[3]; TA 100, 250 μM + MMS, no S9",598.7 ± 14.2 colonies/plate
same,Number of His+ revertants colonies/plate,"[3]; TA 100, 250 μM + NaN3, no S9",266.0 ± 7.8 colonies/plate
same,Number of His+ revertants colonies/plate,"[3]; TA 100, 500 μM + 2AF, S9",240.7 ± 9.8 colonies/plate
same,Number of His+ revertants colonies/plate,"[3]; TA 100, 500 μM + BP, S9",245.7 ± 14.4 colonies/plate
same,Number of His+ revertants colonies/plate,"[3]; TA 100, 500 μM + MMS, no S9",420.3 ± 6.9 colonies/plate
same,Number of His+ revertants colonies/plate,"[3]; TA 100, 500 μM + NaN3, no S9",210.3 ± 12.4 colonies/plate
same,toxicity to Salmonella typhimurium strains,[4]; absence of S9,No toxicity
same,maximum inhibition of mutagenicity,"[4]; against sodium azide, MMS, BP, 2AF",up to 90%
